# Experimental data taken from US6906205B2, “Spiro and dispiro 1,2,4-trioxolane antimalarials” (Medicines for Malaria Venture MMV, priority 2002, dated 2005).
# Tests used:
# [1] = test system: P. falciparum NF54 strain (sensitive to standard antimalarials); assay: semiautomated microdilution assay, [3H]-hypoxanthine incorporation, NF54 strain; assay type: cell-based, Plasmodium falciparum; settings: NF54 strain, 72 h incubation
# In short: (§1)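 Asynchronous stock cultures → intraerythrocytic forms; semiautomated microdilution; IC50 by logit regression.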
# [2] = test system: P. falciparum K1 strain (Thailand resistant to chloroquine); assay: semiautomated microdilution assay, [3H]-hypoxanthine incorporation, K1 strain; assay type: cell-based, Plasmodium falciparum; settings: K1 strain, 72 h incubation
# In short: as §1
# [3] = test system: ANKA strain of P. berghei; assay: single dose STI in vivo screen in infected mice; parameters: species or system Plasmodium berghei; settings: for Activity (%) po / Activity (%) sc / Activity (%) SSVpo: percent reduction in parasitemia day 3 post-infection, mice; for Activity (%) po / Survival (days) po: single 10 mg/kg po in 3% ethanol and 7% Tween 80; for Activity (%) sc / Survival (days) sc: single 10 mg/kg sc in 3% ethanol and 7% Tween 80; for Activity (%) SSVpo: single po dose in standard suspending vehicle (SSV); for Survival (days) po / Survival (days) sc / Survival (days) SSVpo: untreated control 5.6 ± 0.3; for Survival (days) SSVpo: single po dose in SSV
# In short: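 Groups of 3-5 Moro SPF or NMRI mice infected with the ANKA strain of P. berghei received a single dose of trioxolane on day one post-infection. The compound was given in 3% ethanol and 7% Tween 80 or in SSV (0.5% w/v CMC, 0.5% v/v benzyl alcohol, 0.4% v/v Tween 80, 0.9% w/v sodium chloride in water). Antimalarial activity was scored as percent reduction in parasitemia on day three and as survival time versus untreated controls. Survival to day 30 counted as cure.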
SMILES,IC50 (ng/ml) NF54 [1],IC50 (ng/ml) K1 [2],Activity (%) po [3],Activity (%) sc [3],Activity (%) SSVpo [3],Survival (days) po [3] [days],Survival (days) sc [3] [days],Survival (days) SSVpo [3] [days]
O=C(O)C1(c2ccccc2)CCC2(CC1)OOC1(O2)C2CC3CC(C2)CC1C3 (stereo not drawn) [OZ99],27 ng/mL,77 ng/mL,30%,36%,40%,6.3,6.3,5.7
CC(=O)Nc1ccc(S(=O)(=O)N2CCC3(CC2)OOC2(O3)C3CC4CC(C3)CC2C4)cc1 (stereo not drawn) [OZ104],0.50 ng/mL,1.4 ng/mL,56%,99.98%,0%,6.3,12.0,5.7
COC(=O)c1ccc(C2(c3ccc(C(=O)OC)c(C(=O)OC)c3)OOC3(O2)C2CC4CC(C2)CC3C4)cc1C(=O)OC (stereo not drawn) [OZ106],1.7 ng/mL,2.2 ng/mL,0/0/0%,0/0/0%,0/0/0%,5.3,5.3,5.0
O=C(O)c1nccnc1C(=O)N1CCC2(CC1)OOC1(O2)C2CC3CC(C2)CC1C3 (stereo not drawn) [OZ109],24 ng/mL,21 ng/mL,2%,24%,0%,5.7,6.3,5.7
CCOC(=O)N1C2CCC1CC1(C2)OOC2(O1)C1CC3CC(C1)CC2C3 (stereo not drawn) [OZ110],2.1 ng/mL,5.3 ng/mL,50%,97.97%,0%,6.7,7.7,5.3
O=C(O)COCC(=O)N1CCC2(CC1)OOC1(O2)C2CC3CC(C2)CC1C3 (stereo not drawn) [OZ112],>10/>10 ng/ml,>10/>10 ng/ml,6%,36%,0%,5.7,6.3,5.7
O=S(=O)(c1cccc2cccnc12)N1CCC2(CC1)OOC1(O2)C2CC3CC(C2)CC1C3 (stereo not drawn) [OZ114],2.2 ng/mL,3.7 ng/mL,0%,99.64%,0%,5.7,8.7,6.0
CCCCCCCCS(=O)(=O)N1CCC2(CC1)OOC1(O2)C2CC3CC(C2)CC1C3 (stereo not drawn) [OZ115],6.9 ng/mL,11 ng/mL,33%,97%,0%,6.3,7.3,5.7
O=C(NO)[C@H]1CC[C@]2(CC1)OOC1(O2)C2CC3CC(C2)CC1C3 (stereo partly drawn) [OZ116],3.3 ng/mL,4.2 ng/mL,97%,96%,96%,7.7,8.0,8.3
NCC1(c2ccccc2)CCC2(CC1)OOC1(O2)C2CC3CC(C2)CC1C3 (stereo not drawn) [OZ117],1.2 ng/mL,2.1 ng/mL,95%,99.94%,96%,7.0,8.7,7.7
CC(=O)OC[C@H]1CC[C@]2(CC1)OOC1(O2)C2CC3CC(C2)CC1C3 (stereo partly drawn) [OZ118],0.24 ng/mL,1.0 ng/mL,99.0%,99.57%,98%,7.0,8.3,8.0
CCOC(=O)C1(C(=O)OCC)COC2(CCC3(CC2)OOC2(O3)C3CC4CC(C3)CC2C4)OC1 (stereo not drawn) [OZ120],0.59 ng/mL,1.2 ng/mL,33%,96%,8%,6.0,8.0,5.7
OCC1(CO)COC2(CCC3(CC2)OOC2(O3)C3CC4CC(C3)CC2C4)OC1 (stereo not drawn) [OZ121],0.41 ng/mL,0.96 ng/mL,91%,99.61%,98%,7.3,7.3,8.0
O=C(O)C1(C(=O)O)COC2(CCC3(CC2)OOC2(O3)C3CC4CC(C3)CC2C4)OC1 (stereo not drawn) [OZ122],>100/>100 ng/ml,>100/>100 ng/ml,10%,0%,3%,5.7,5.0,5.3
BrC[C@H]1CC[C@]2(CC1)OOC1(O2)C2CC3CC(C2)CC1C3 (stereo partly drawn) [OZ123],1.9 ng/mL,1.6 ng/mL,99.66%,99.96%,94%,8.0,16,7.0
